Data from patent US20090088371A1, “COMBINATION THERAPY WITH SYK KINASE INHIBITOR” (Rigel Pharmaceuticals, Inc., priority 2007, published 2009).
Values joined by “and” are separate entries in the source; they are usually repeats but may differ in a detail not shown here. Identical values can stand only once. “Also recorded” adds a separate entry of the source.

Columns and labels:
[1] = tested on: C57BL/6 mice; experiment: Anti-CD41 antibody-induced thrombocytopenia in C57BL/6 mice, platelet counts (Examples 1 and 3, FIG. 1); assay type: in vivo, mouse; details: for Platelet count versus mice treated with CD41 antibody alone: first dose 30 minutes prior to platelet-depleting antibody, 24 h
Experimental: On Day 1 of each study, mice were rendered thrombocytopenic by injection with rat anti-mouse CD41 antibody (IgG1, Clone MWReg30) by the intraperitoneal (IP) route. The platelet depleting antibody (rat anti-mouse GPIIb, also referred to as anti-integrin αIIb or anti-CD41) was administered […] treatment with Compound I on Day 1. Mice in control groups either received nothing (naïve), saline only, or an isotype-matched irrelevant control antibody (nonspecific rat anti-mouse IgG1, Clone R3-34, BD, San Jose, Calif.).
Mice received vehicle or Compound 1 at various dose levels (0, 20, 40, or 80 mg/kg, PO, 5 mL/kg) 30 minutes prior to the platelet depleting antibody, then again 8 h, 16 h, and 23 h after induction of thrombocytopenia. At 24 h after administration of the anti-CD41 platelet-depleting antibody, blood was harvested from all groups by cardiocentesis to assess the platelet counts or drug levels in the plasma. An aliquot from each sample was transferred to a plasma separator tube and the separated plasma was stored at −80° C. for analysis. Blood was placed indirectly on ice for delivery. Platelet enumeration was performed using Bayer Advia 120 Bayer Advia 120 hematology system (Bayer, Tarrytown, N.Y.) by Quality Clinical Laboratories (QCL, Mountain View, Calif.).
Systemic drug exposures were determined at sacrifice with the final dose being given on the evening of Day 1 (8 h prior to blood collection) or on the morning of Day 2 (1 h prior to blood collection). Satellite animals treated with Compound 1 and not receiving platelet-depleting antibody were added to obtain a more complete PK profile.
Significant differences between vehicle and Compound I-treated groups were determined statistically using the GraphPad Prism 4.0® software package, unless otherwise stated. In general, Prism 4.0® uses the standard calculations as detailed in D. G. Altman, Practical Statistics for Medical Research, 1991, Chapman and Hall. Platelet count data was analyzed using Kruskal Wallis Nonparametric test with Dunn's multiple group post-hoc test to compare the rank sums, unless otherwise noted.
In FIG. 1, each data point represents platelet counts for an individual mouse administered a single IP injection of 5 μg of CD41 platelet depleting antibody (n=11-12 per group). Mice were bled 24 hours post antibody administration and platelet counts were performed using Bayer Advia 120 analyzer. Mice were given vehicle or indicated doses of Compound 1. Platelet-depleting antibody was administered 30 minutes after the first Compound 1 or vehicle dose on Day 1.

[2] = tested on: CD-1 mice; experiment: Antibody-mediated thrombocytopenia in CD-1 mice, platelet counts by flow cytometry (Examples 2 and 4, FIG. 2, Table 1); assay type: in vivo, mouse; details: for Individual Animal Platelet Count / Platelet Count Mean: 24 hours following anti-αIIb treatment; for Individual Animal Platelet Count: one value per animal; for Platelet Count Mean: n=6
Experimental: CD-1 mice, approximately 10 weeks of age, were obtained from Charles River (Montreal, PQ, Canada). All mice, with the exception of the naïve group, were injected with 2 μg rat anti-mouse GPIIb (also referred to as anti-integrin αIIb or anti-CD41) antibody (specific for GPIIb, clone MWReg30, rat IgG1, κ, PharMingen, Missassuaga, ON, Canada) in 200 μL PBS on Day 1. Platelets were enumerated on Day 2 (24 hours following injection of anti-platelet antibody).
During the 3 day experiment (Day O— Day 2), Compound I-treated mice were given the indicated doses of Compound 1 by oral gavage once on Day 0, twice on Day 1 and once on Day 2. Control animals were given an equal volume of vehicle. For the IVIg group, mice were injected intraperitoneally (IP) with 2 g/kg Gamunex IVIg (Bayer, Elkhart, Ill.) once on Day 0. Two concentrations of Compound 1 (3.08 and 4.94 mg/mL) were formulated with 0.1% CMC Na-0.1% Methylparaben-0.02% Propylparaben-H2O. One day prior to platelet depletion, treatment began. Mice were treated orally twice daily (bid.) with Compound 1 (30.8 or 49.4 mg/kg of body weight per dose, n=6) at a dose volume of 10 mL/kg. IVIg (2 g/kg) was used as a reference agent and was administered IP as described previously (Crow et al., 2003).
Two hours following the last treatment of Compound 1 on Day 2, all mice were bled via the saphenous vein; 50 μL of blood was collected into 450 μL PBS/1% EDTA. The blood was further diluted to a final dilution of 1/12,000 in PBS/1% EDTA. Platelets were enumerated by flow cytometry according to Crow et al., 2001. Briefly, the samples were acquired for 2 minutes on a flow-rate-calibrated FACScan flow cytometer (Becton-Dickinson, San Jose, Calif.), using forward scatter (FSC) versus side scatter (SSC) to gate platelets.
All values in the text and figures are expressed as mean±standard error of the mean (SEM) for n=6 mice/group unless noted otherwise, and n represents the number of mice. Differences between treatment and control groups were compared using the 2-tailed Student's t-test using GraphPad Prism Inc., software ver. 4.0 (San Diego, Calif., USA).
On Day 0, mice were pre-treated with nothing (Nil), 0.25 mL Vehicle twice (8 hrs apart) or the indicated doses of Compound 1 (in 0.25 mL vehicle) or 2 g/kg IVIg. On Day 1, the above treatments were repeated except for IVIg. All mice also received 2 μg anti-platelet antibody on Day 1. On Day 2, all mice were bled for platelet enumeration by flow cytometry as described. n=6 mice per group. Data are expressed as mean±SEM.

Structure (SMILES): COc1cc(Nc2ncc(F)c(Nc3ccc4c(n3)N(COP(=O)(O)O)C(=O)C(C)(C)O4)n2)cc(OC)c1OC [Compound 1]
- Platelet count versus the 80 mg/kg group ([1]; 20 mg/kg PO with platelet depleting antibody, p<0.01): significantly lower
- Platelet count versus mice treated with CD41 antibody alone ([1]; 40 mg/kg PO, p<0.05): significantly higher platelet count
- Platelet count versus mice treated with CD41 antibody alone ([1]; 80 mg/kg PO, p<0.001): significantly higher platelet count
- Dose dependence of inhibition of platelet depletion ([1]; 20, 40, 80 mg/kg PO, C57BL/6 mice): dose-dependent inhibition of platelet depletion
- Inhibition of platelet depletion compared with vehicle alone ([2]; 30.8 mg/kg group, p=0.001, Day 2): highly significant
- Inhibition of platelet depletion compared with vehicle alone ([2]; 49.4 mg/kg group, p=0.008, Day 2): highly significant
- Dose dependence of the effect on platelet counts ([2]; 30.8 versus 49.4 mg/kg, difference not significant (p=0.9)): did not appear to be dose-dependent
- Individual Animal Platelet Count ([2]; Compound 1 30.8 mg/kg oral gavage, CD-1 mice, 30.8 mg/kg): 3.92e+11 L⁻¹ and 3.98e+11 L⁻¹ and 4.57e+11 L⁻¹ and 5.84e+11 L⁻¹ and 6.02e+11 L⁻¹ and 6.79e+11 L⁻¹
- Platelet Count Mean ([2]; Compound 1 30.8 mg/kg oral gavage): 5.19e+11 L⁻¹
- Individual Animal Platelet Count ([2]; Compound 1 49.4 mg/kg oral gavage, CD-1 mice, 49.4 mg/kg): 4.11e+11 L⁻¹ and 4.37e+11 L⁻¹ and 4.33e+11 L⁻¹ and 4.98e+11 L⁻¹ and 9.31e+11 L⁻¹ and 5.1e+11 L⁻¹
- Platelet Count Mean ([2]; Compound 1 49.4 mg/kg oral gavage): 5.37e+11 L⁻¹
- Effect on platelet depletion by anti-platelet antibody ([2]; Compound 1 treatment prior to and following CD41 platelet depleting antibody, CD-1 mice, Day 2): reduced depletion of platelets; also recorded: inhibited the reduction in platelet count
